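Values below derive from 48-hour exposures of cells grown in 96-well plates, with endpoints linearly interpolated between the two concentrations bracketing the appropriate inhibition level. At the GI50, growth is halved. The concentration for full growth arrest is given as TGI.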
Columns and labels:
Test in all cases: NCI tumour cell line growth inhibition, 48 h
[1] = tested on: UACC-62 melanoma
[2] = tested on: HT29 colon
[3] = tested on: SW-620 colon
[4] = tested on: SK-OV-3 ovarian
[5] = tested on: MALME-3M melanoma
[6] = tested on: HCT-15 colon
[7] = tested on: M14 melanoma
[8] = tested on: HOP-62 NSCLC
[9] = tested on: RPMI-8226 leukemia
[10] = tested on: SR leukemia
[11] = tested on: MOLT-4 leukemia
[12] = tested on: NCI-H522 lung
[13] = tested on: COLO 205 colon
[14] = tested on: MDA-MB-231 breast
[15] = tested on: 786-0 renal
[16] = tested on: IGROV1 ovarian
[17] = tested on: TK-10 renal
[18] = tested on: UACC-257 melanoma
[19] = tested on: K-562 leukemia
[20] = tested on: HCT-116 colon
[21] = tested on: NCI-H23 lung
[22] = tested on: RXF 393 renal
[23] = tested on: NCI/ADR-RES ovarian
[24] = tested on: NCI-H460 lung
[25] = tested on: OVCAR-4 ovarian
[26] = tested on: NCI-H226 lung
[27] = tested on: CCRF-CEM leukemia
[28] = tested on: BT-549 breast
[29] = tested on: DU-145 prostate
[30] = tested on: SK-MEL-2 melanoma
[31] = tested on: SF-295 CNS
[32] = tested on: MCF7 breast
[33] = tested on: UO-31 renal
[34] = tested on: LOX IMVI melanoma
[35] = tested on: SF-539 CNS
[36] = tested on: T-47D breast
[37] = tested on: SK-MEL-28 melanoma
[38] = tested on: SN12C renal
[39] = tested on: OVCAR-8 ovarian
[40] = tested on: HL-60(TB) leukemia
[41] = tested on: U251 CNS
[42] = tested on: ACHN renal
[43] = tested on: HS 578T breast
[44] = tested on: A549 NSCLC
[45] = tested on: OVCAR-3 ovarian
[46] = tested on: SNB-75 CNS
[47] = tested on: EKVX NSCLC
[48] = tested on: PC-3 prostate
[49] = tested on: SNB-19 CNS
[50] = tested on: CAKI-1 renal
[51] = tested on: OVCAR-5 ovarian
[52] = tested on: MDA-MB-435
[53] = tested on: A498 renal
[54] = tested on: SK-MEL-5 melanoma
[55] = tested on: HOP-92 NSCLC
[56] = tested on: HCC-2998 colon
[57] = tested on: SF-268 CNS
[58] = tested on: KM12 colon

Question: `Cc1ccccc1NC(=O)Nc1nc2ccc([N+](=O)[O-])cc2s1` was tested. Which GI50 [1] did it give?
Answer: 2.46 µM

Question: And the TGI [1]?
Answer: 10.6 µM

Question: What about the GI50 [2] of the same compound?
Answer: 2.03 µM

Question: And the TGI [2]?
Answer: 4.96 µM

Question: What about the GI50 [3] of the same compound?
Answer: 2.54 µM

Question: What about the TGI [3] of the same compound?
Answer: 7.86 µM

Question: What about the GI50 [4] of the same compound?
Answer: 2.05 µM

Question: What about the TGI [4] of the same compound?
Answer: 5.43 µM

Question: What about the GI50 [5] of the same compound?
Answer: 2.1 µM

Question: What about the TGI [5] of the same compound?
Answer: 4.99 µM

Question: What about the GI50 [6] of the same compound?
Answer: 2.12 µM

Question: What about the TGI [6] of the same compound?
Answer: 5.48 µM

Question: What about the GI50 [7] of the same compound?
Answer: 2.42 µM

Question: And the TGI [7]?
Answer: 5.85 µM

Question: And the GI50 [8]?
Answer: 2.49 µM

Question: And the TGI [8]?
Answer: 7.01 µM

Question: What about the GI50 [9] of the same compound?
Answer: 1.43 µM

Question: And the TGI [9]?
Answer: 3.76 µM

Question: And the GI50 [10]?
Answer: 1.73 µM

Question: And the TGI [10]?
Answer: 4.11 µM

Question: And the GI50 [11]?
Answer: 1.76 µM

Question: What about the TGI [11] of the same compound?
Answer: 4.02 µM

Question: And the GI50 [12]?
Answer: 1.47 µM

Question: And the TGI [12]?
Answer: 4.24 µM

Question: And the GI50 [13]?
Answer: 1.61 µM

Question: And the TGI [13]?
Answer: 3.16 µM

Question: And the GI50 [14]?
Answer: 2.74 µM

Question: What about the TGI [14] of the same compound?
Answer: 8.94 µM

Question: What about the GI50 [15] of the same compound?
Answer: 2.7 µM

Question: What about the TGI [15] of the same compound?
Answer: 8.41 µM

Question: What about the GI50 [16] of the same compound?
Answer: 3.38 µM

Question: What about the TGI [16] of the same compound?
Answer: 13.4 µM

Question: What about the GI50 [17] of the same compound?
Answer: 2.9 µM

Question: And the TGI [17]?
Answer: 7.11 µM

Question: And the GI50 [18]?
Answer: 1.89 µM

Question: And the TGI [18]?
Answer: 5.12 µM

Question: And the GI50 [19]?
Answer: 1.53 µM

Question: What about the TGI [19] of the same compound?
Answer: 4.76 µM

Question: What about the GI50 [20] of the same compound?
Answer: 2.24 µM

Question: And the TGI [20]?
Answer: 5.21 µM

Question: And the GI50 [21]?
Answer: 1.79 µM

Question: And the TGI [21]?
Answer: 4.7 µM

Question: What about the GI50 [22] of the same compound?
Answer: 1.89 µM

Question: And the TGI [22]?
Answer: 4.29 µM

Question: What about the GI50 [23] of the same compound?
Answer: 2.12 µM

Question: And the TGI [23]?
Answer: 5.03 µM

Question: What about the GI50 [24] of the same compound?
Answer: 2.31 µM

Question: What about the TGI [24] of the same compound?
Answer: 6.24 µM

Question: And the GI50 [25]?
Answer: 2.65 µM

Question: And the TGI [25]?
Answer: 9.13 µM

Question: What about the GI50 [26] of the same compound?
Answer: 2.29 µM

Question: What about the TGI [26] of the same compound?
Answer: 6.21 µM

Question: And the GI50 [27]?
Answer: 1.76 µM

Question: And the TGI [27]?
Answer: 5.28 µM

Question: And the GI50 [28]?
Answer: 2.18 µM

Question: What about the TGI [28] of the same compound?
Answer: 4.53 µM

Question: And the GI50 [29]?
Answer: 3.23 µM

Question: What about the TGI [29] of the same compound?
Answer: 11.2 µM

Question: What about the GI50 [30] of the same compound?
Answer: 1.98 µM

Question: What about the TGI [30] of the same compound?
Answer: 4.49 µM

Question: And the GI50 [31]?
Answer: 1.72 µM

Question: What about the TGI [31] of the same compound?
Answer: 3.61 µM

Question: And the GI50 [32]?
Answer: 2.36 µM

Question: And the TGI [32]?
Answer: 6.69 µM

Question: And the GI50 [33]?
Answer: 2.02 µM

Question: What about the TGI [33] of the same compound?
Answer: 6.33 µM

Question: And the GI50 [34]?
Answer: 1.83 µM

Question: And the TGI [34]?
Answer: 3.53 µM

Question: And the GI50 [35]?
Answer: 2.03 µM

Question: And the TGI [35]?
Answer: 4.43 µM

Question: What about the GI50 [36] of the same compound?
Answer: 2.22 µM

Question: And the TGI [36]?
Answer: 6.28 µM

Question: What about the GI50 [37] of the same compound?
Answer: 2.26 µM

Question: What about the TGI [37] of the same compound?
Answer: 6.29 µM

Question: What about the GI50 [38] of the same compound?
Answer: 2.38 µM

Question: What about the TGI [38] of the same compound?
Answer: 7.12 µM

Question: What about the GI50 [39] of the same compound?
Answer: 2.81 µM

Question: What about the TGI [39] of the same compound?
Answer: 9.9 µM

Question: What about the GI50 [40] of the same compound?
Answer: 1.79 µM

Question: What about the TGI [40] of the same compound?
Answer: 3.87 µM

Question: What about the GI50 [41] of the same compound?
Answer: 1.77 µM

Question: What about the TGI [41] of the same compound?
Answer: 3.67 µM

Question: What about the GI50 [42] of the same compound?
Answer: 1.88 µM

Question: And the TGI [42]?
Answer: 4.53 µM

Question: What about the GI50 [43] of the same compound?
Answer: 2.4 µM

Question: And the TGI [43]?
Answer: 6.64 µM

Question: And the GI50 [44]?
Answer: 2.17 µM

Question: And the TGI [44]?
Answer: 5.8 µM

Question: What about the GI50 [45] of the same compound?
Answer: 1.84 µM

Question: And the TGI [45]?
Answer: 4.33 µM

Question: What about the GI50 [46] of the same compound?
Answer: 1.77 µM

Question: And the TGI [46]?
Answer: 4.78 µM

Question: And the GI50 [47]?
Answer: 2.16 µM

Question: What about the TGI [47] of the same compound?
Answer: 6.01 µM

Question: What about the GI50 [48] of the same compound?
Answer: 1.78 µM

Question: And the TGI [48]?
Answer: 4.23 µM

Question: What about the GI50 [49] of the same compound?
Answer: 2.72 µM

Question: What about the TGI [49] of the same compound?
Answer: 7.77 µM

Question: And the GI50 [50]?
Answer: 1.68 µM

Question: What about the TGI [50] of the same compound?
Answer: 4.02 µM

Question: What about the GI50 [51] of the same compound?
Answer: 2.98 µM

Question: And the TGI [51]?
Answer: 11.3 µM

Question: What about the GI50 [52] of the same compound?
Answer: 2.1 µM

Question: And the TGI [52]?
Answer: 5.71 µM

Question: And the GI50 [53]?
Answer: 1.89 µM

Question: And the TGI [53]?
Answer: 4.41 µM

Question: And the GI50 [54]?
Answer: 1.59 µM

Question: And the TGI [54]?
Answer: 3.19 µM

Question: And the GI50 [55]?
Answer: 1.59 µM

Question: What about the TGI [55] of the same compound?
Answer: 4.19 µM

Question: What about the GI50 [56] of the same compound?
Answer: 2.29 µM

Question: What about the TGI [56] of the same compound?
Answer: 5.38 µM

Question: What about the GI50 [57] of the same compound?
Answer: 3.06 µM

Question: What about the TGI [57] of the same compound?
Answer: 9.95 µM

Question: And the GI50 [58]?
Answer: 2.49 µM

Question: And the TGI [58]?
Answer: 8.57 µM

— PubChem BioAssay (NCI)
